The text below walks through data of the supplement of paper PMC11562712.

A short description of this data set: first-order primary biodegradation rate constant k (sorption-corrected, fDis-corrected) (d-1); higher = faster biodegradation. The protocol:
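Modified OECD 309 water-sediment test. River water plus sieved sediment (50 g wet solid/L) from European river segments (DE, CH, ES, EL) was spiked with a mixture of 129 compounds at 1 ug/L each and incubated in the dark at river temperature for 10 days. The water phase was analysed by UHPLC-Orbitrap-MS. The first-order primary biodegradation rate constant k (d-1) is k_observed, corrected for dissipation in sterile sorption controls and divided by the dissolved fraction fDis; it was fitted over 3 replicate incubations. Invalid fits (p > 0.05, n < 5, not available, concentration increase) are excluded.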

[1] abbreviates: river segment: Germany (DE) H_Contam, incubation temperature 24 °C.
Setting [2] is: river segment: Greece (EL) A_Contam, incubation temperature 19 °C.
Setting [3] is: river segment: Greece (EL) G_Contam, incubation temperature 19 °C.
Where [4] appears, read: river segment: Greece (EL) L_Contam, incubation temperature 19 °C.
The mark [5] stands for this setting: river segment: Spain (ES) L_Contam, incubation temperature 24 °C.
[6] abbreviates: river segment: Switzerland (CH) C_Contam, incubation temperature 17 °C.
[7] abbreviates: river segment: Switzerland (CH) R_Contam, incubation temperature 17 °C.
Setting [8] is: river segment: Switzerland (CH) U_Contam, incubation temperature 17 °C.
The mark [9] stands for this setting: river segment: Germany (DE) T_Contam, incubation temperature 24 °C.
Setting [10] is: river segment: Germany (DE) T_Pris, incubation temperature 24 °C.
[11] abbreviates: river segment: Spain (ES) B_Contam, incubation temperature 24 °C.
Setting [12] is: river segment: Spain (ES) C_Contam, incubation temperature 24 °C.
Setting [13] is: river segment: Spain (ES) F_Pris_Salt, incubation temperature 24 °C.
The mark [14] stands for this setting: river segment: Switzerland (CH) U_Pris, incubation temperature 17 °C.
The mark [15] stands for this setting: river segment: Greece (EL) G_Pris, incubation temperature 19 °C.

Turning to `CCCCC(CC)COCC(O)CO` (centres undefined) [3-((2-Ethylhexyl)oxy)propane-1,2-diol], the “first-order primary biodegradation rate constant k” value by setting is: under setting [1], 1.43; under setting [2], 0.277; under setting [3], 1.93; under setting [4], 5.22; under setting [5], 0.469; under setting [6], 6.13. Also, the “first-order primary biodegradation rate constant k” value under setting [7] was found to be 0.288 and the “first-order primary biodegradation rate constant k” value under setting [8] stood at 0.0899.

As for `O=[N+]([O-])c1ccc(Cc2ccncc2)cc1` [4-(4-Nitrobenzyl)pyridine], the “first-order primary biodegradation rate constant k” value stood at 0.499 under setting [1]; 1.05 under setting [9]; 0.446 under setting [10]; 1.09 under setting [2]; 1.68 under setting [3]; 1.94 under setting [4]. For the same molecule, the “first-order primary biodegradation rate constant k” value is, setting by setting: under setting [11], 0.863; under setting [12], 0.301; under setting [13], 0.146; under setting [5], 1.1; under setting [6], 0.314; under setting [7], 0.45. Besides, the “first-order primary biodegradation rate constant k” value reads like this: under setting [8], 1.95; under setting [14], 2.28.

With `Cc1cc(O)cc(C)c1Cl` [4-Chloro-3,5-dimethylphenol], the “first-order primary biodegradation rate constant k” value reads like this: under setting [1], 1.4; under setting [9], 2.27; under setting [10], 1.68; under setting [2], 2.03; under setting [3], 0.169; under setting [15], 3.52. Also, the “first-order primary biodegradation rate constant k” value runs as follows: under setting [4], 3.5; under setting [12], 2.41; under setting [13], 0.228; under setting [5], 4.19; under setting [14], 4.31.

Consider `Cc1ccc2n[nH]nc2c1` [5-Methylbenzotriazole], for which the “first-order primary biodegradation rate constant k” value under setting [1] is 0.0462; the “first-order primary biodegradation rate constant k” value under setting [9] is 0.0831; the “first-order primary biodegradation rate constant k” value under setting [10] stood at 0.00627; the “first-order primary biodegradation rate constant k” value under setting [2] came to 0.327; the “first-order primary biodegradation rate constant k” value under setting [15] turned out to be 0.771; the “first-order primary biodegradation rate constant k” value under setting [4] was 0.219. For the same molecule, the “first-order primary biodegradation rate constant k” value runs as follows: under setting [11], 0.0714; under setting [12], 0.102; under setting [5], 0.219; under setting [6], 0.0095; under setting [7], 0.134; under setting [8], 0.139. The “first-order primary biodegradation rate constant k” value under setting [14] is 0.282.

In the case of `Nc1nc(NC2CC2)c2ncn([C@H]3C=C[C@@H](CO)C3)c2n1` [Abacavir], the “first-order primary biodegradation rate constant k” value reads like this: under setting [1], 1.6; under setting [9], 1.17; under setting [10], 1.37; under setting [2], 2.15; under setting [3], 1.43; under setting [15], 2.35. Also, the “first-order primary biodegradation rate constant k” value by setting is: under setting [4], 12; under setting [12], 0.639; under setting [13], 0.449; under setting [5], 2.21; under setting [6], 0.83; under setting [7], 1.18. In addition, the “first-order primary biodegradation rate constant k” value by setting is: under setting [8], 1.47; under setting [14], 1.5.

For `CC1=CC(=O)NS(=O)(=O)O1` [Acesulfame], the “first-order primary biodegradation rate constant k” value is, setting by setting: under setting [2], 0.191; under setting [11], 1.27; under setting [12], 0.157; under setting [5], 0.293; under setting [7], 0.0997.

For the molecule `C/C(=N\C#N)N(C)Cc1ccc(Cl)nc1` [Acetamiprid], the “first-order primary biodegradation rate constant k” value is 0.0195 under setting [1]; 0.217 under setting [9]; 0.0162 under setting [10]; 0.097 under setting [2]; 0.0201 under setting [3]; 0.125 under setting [15]. The “first-order primary biodegradation rate constant k” value was found to be 0.0691 under setting [4]; 0.00952 under setting [12]; 0.0364 under setting [5]; 0.031 under setting [6]; 0.139 under setting [7]; 0.106 under setting [8]. The “first-order primary biodegradation rate constant k” value under setting [14] was 0.386.

For the molecule `CCc1cccc(CC)c1N(COC)C(=O)CCl` [Alachlor], the “first-order primary biodegradation rate constant k” value is, setting by setting: under setting [1], 0.0727; under setting [9], 0.612; under setting [10], 0.105; under setting [15], 0.387; under setting [4], 0.568; under setting [11], 0.115. Also, the “first-order primary biodegradation rate constant k” value turned out to be 0.12 under setting [5], 0.0903 under setting [6], 0.223 under setting [7] and 0.349 under setting [8].

Consider `CCN1CCCC1CNC(=O)c1cc(S(=O)(=O)CC)c(N)cc1OC` (centres undefined) [Amisulpride], for which the “first-order primary biodegradation rate constant k” value by setting is: under setting [1], 0.0111; under setting [9], 0.266; under setting [10], 0.0301; under setting [2], 0.501; under setting [3], 0.129; under setting [15], 0.106. Also, the “first-order primary biodegradation rate constant k” value was found to be 0.0427 under setting [11]; 0.00307 under setting [5]; 0.0234 under setting [6]; 0.00879 under setting [8]; 0.0314 under setting [14].

For `CC(C)(C#N)c1cc(Cn2cncn2)cc(C(C)(C)C#N)c1` [Anastrozole], the “first-order primary biodegradation rate constant k” value worked out at 0.0241 under setting [9]; 0.0157 under setting [10]; 0.658 under setting [3]; 0.133 under setting [15]; 0.113 under setting [4]; 0.00582 under setting [8].

On to `CC(C)NCC(O)COc1ccc(CC(N)=O)cc1` (centres undefined) [Atenolol], for which the “first-order primary biodegradation rate constant k” value was determined as 0.299 under setting [1]; 0.901 under setting [9]; 0.3 under setting [10]; 0.39 under setting [2]; 0.342 under setting [3]; 0.147 under setting [15]. For the same molecule, the “first-order primary biodegradation rate constant k” value runs as follows: under setting [4], 0.665; under setting [11], 2.88; under setting [13], 0.0637; under setting [5], 0.568; under setting [6], 0.114; under setting [7], 0.395. Further, the “first-order primary biodegradation rate constant k” value is, setting by setting: under setting [8], 0.508; under setting [14], 0.447.

Consider `CCNc1nc(Cl)nc(NC(C)C)n1` [Atrazine], for which the “first-order primary biodegradation rate constant k” value was determined as 0.0725 under setting [1]; 0.136 under setting [9]; 0.025 under setting [10]; 0.0312 under setting [2]; 0.103 under setting [11]; 0.0247 under setting [12]. Besides, the “first-order primary biodegradation rate constant k” value by setting is: under setting [5], 0.451; under setting [6], 0.0513; under setting [8], 0.0313; under setting [14], 0.0218.
